Experimental data reported in paper PMC4739419, “Mutations in the nucleotide binding and hydrolysis domains of Helicobacter pylori MutS2 lead to altered biochemical activities and inactivation of its in vivo function” (BMC Microbiology, 2016).
Residue numbers refer to the chain shown, from its start.

T1: ssDNA-HpMutS2 complex (Helicobacter pylori, UniProt O25338)
T1 construct: (A) HpMutS2 (1-762): Mol. wt; (kDa): 87.8; His6 (C); made in house; host or cells: E. coli Rosetta (DE3) pLysS
T1 sequence (O25338 1-762): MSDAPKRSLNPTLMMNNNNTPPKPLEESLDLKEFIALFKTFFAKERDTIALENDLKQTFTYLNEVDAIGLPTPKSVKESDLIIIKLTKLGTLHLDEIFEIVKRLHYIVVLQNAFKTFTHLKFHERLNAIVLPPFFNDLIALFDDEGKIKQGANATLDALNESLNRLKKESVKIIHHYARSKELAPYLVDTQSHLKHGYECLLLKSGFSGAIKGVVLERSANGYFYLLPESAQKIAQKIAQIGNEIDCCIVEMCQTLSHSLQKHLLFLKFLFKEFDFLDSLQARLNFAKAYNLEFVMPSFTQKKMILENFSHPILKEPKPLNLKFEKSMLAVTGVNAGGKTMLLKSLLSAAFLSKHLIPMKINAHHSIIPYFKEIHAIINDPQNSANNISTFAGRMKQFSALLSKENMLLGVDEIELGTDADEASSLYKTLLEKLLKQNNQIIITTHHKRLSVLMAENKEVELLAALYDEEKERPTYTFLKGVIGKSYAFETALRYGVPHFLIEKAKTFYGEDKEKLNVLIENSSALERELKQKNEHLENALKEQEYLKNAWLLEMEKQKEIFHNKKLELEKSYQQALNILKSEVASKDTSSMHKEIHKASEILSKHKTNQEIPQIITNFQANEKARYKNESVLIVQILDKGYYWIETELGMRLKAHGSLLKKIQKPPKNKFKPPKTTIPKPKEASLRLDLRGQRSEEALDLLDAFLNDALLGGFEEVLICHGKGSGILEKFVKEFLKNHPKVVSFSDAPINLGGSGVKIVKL

T2: HpMutS2-G338R (Helicobacter pylori, UniProt O25338, G338R)
T2 construct: (A) HpMutS2-G338R (1-762): Mol. wt; (kDa): 87.9; His6 (C); made in house; host or cells: E. coli Rosetta (DE3) pLysS
T2 sequence (O25338 1-762 G338R): T1 sequence (O25338 1-762) with G338R

T3: HpMutS2-E413A (Helicobacter pylori, UniProt O25338, E413A)
T3 construct: (A) HpMutS2-E413A (1-762): Mol. wt; (kDa): 87.7; His6 (C); made in house; host or cells: E. coli Rosetta (DE3) pLysS
T3 sequence (O25338 1-762 E413A): T1 sequence (O25338 1-762) with E413A

T4: HpMutS2 (Helicobacter pylori 26695, UniProt O25338 1-762)
T4 sequence: T1 sequence (O25338 1-762)

B1: ssDNA 63-mer (ODN4) (ssDNA)
DNA: ATCGATAGTCGGATCCTCCAGACAGCTCCATGTAGCAAGGCACTGGTAGAATTCGGCAGCGTC

Key:
ssDNA-HpMutS2 complex = target: T1, ssDNA-HpMutS2 complex; assay: Chase experiment on preformed nucleoprotein complex; type: binding; details: highest concentration of ATP used (0.25–5 mM)
HpMutS2-G338R [1] = target: T2, HpMutS2-G338R; assay: Tryptophan fluorescence-quenching nucleotide binding assay; details: no divalent metal ions, protein 1 μM, 25 °C; read-out: Kd (dissociation constant)
Procedure: (§1) Next, the ATP hydrolysing abilities of HpMutS2-G338R and HpMutS2-E413A were tested and compared to that of wild-type HpMutS2. […] Therefore, to determine the nucleotide binding efficiencies of HpMutS2, HpMutS2-G338R, and HpMutS2-E413A, intrinsic fluorescence properties of these proteins were exploited. HpMutS2 has two tryptophan residues at positions 551 and 644. A fluorescence-quenching assay was used to determine the ATP and ADP binding affinities of HpMutS2 and its mutants. Quenching of the Trp fluorescence was recorded upon titration with ATP and ADP in absence of any divalent metal ions. Saturation isotherms generated from the changes in the fluorescence emission spectra of HpMutS2, HpMutS2-G338R, and HpMutS2-E413A were used to calculate the dissociation constants for ATP and ADP (Figs. 2a, b and c respectively).
(§2) Fig. 2 Nucleotide binding affinities of a HpMutS2 b HpMutS2-G338R and c HpMutS2-E413A. Tryptophan fluorescence assays described in the Methods section were used to determine the nucleotide binding affinities of proteins.
(§3) Fluorescence spectroscopy analysis of HpMutS2 was carried out based on the intrinsic fluorescent signal of tryptophan. The proteins were dialyzed in buffer B (50 mM Tris pH 8.0 and 100 mM NaCl) for 4–6 h with at least two changes of the buffer. Fluorescence intensities were measured on a Shimadzu, RF 5000 spectrofluorimeter using a 1-cm stirred quartz cuvette at 25 °C. The emission spectra were recorded over a wavelength of 300–400 nm with an excitation wavelength of 280 nm. To measure the dissociation constants for ATP and ADP, small aliquots of cofactor were added to proteins (1 μM), and spectra were recorded. Each spectra recorded was an average of three scans. The maximum fluorescence intensities observed at around 340 nm were selected for calculating the difference in intrinsic fluorescence of protein alone and in the presence of ligand. Control titrations were conducted and all the fluorescence emission spectra were corrected by subtracting control spectra. The dissociation constants were calculated graphically using a plot of ΔF/ΔFmax versus ligand concentration. ΔF is the magnitude of the difference between the observed fluorescence intensity at a given concentration of ligand and the fluorescence intensity in the absence of ligand and ΔFmax is the difference at saturating concentration of ligand.

HpMutS2-E413A [2] = target: T3, HpMutS2-E413A; assay: as above; details: no divalent metal ions, protein 1 μM, 25 °C; read-out: Kd (dissociation constant)
Procedure: as §1, §2, §3

HpMutS2 [3] = target: T5, HpMutS2 (Helicobacter pylori, UniProt O25338); assay: as above; details: for Kd: no divalent metal ions, protein 1 μM, 25 °C, read-out: Kd (dissociation constant)
T5 construct: (A) HpMutS2 (1-762): Mol. wt; (kDa): 87.8; His6 (C); made in house; host or cells: E. coli Rosetta (DE3) pLysS
Procedure: as §1, §2, §3

HpMutS2 [4] = target: T4, HpMutS2; assay: EMSA; no nucleotide; EMSA: 0.16 nM DNA, buffer A (50 mM Tris pH 8.0, 50 mM NaCl, 1 mM DTT per Fig. S3 legend) with 0.1 ug/ul BSA, NaCl 110 mM, no divalent metal stated, 30 min on ice, 8% native PAGE at 4 C; nucleotides 1 mM; Hill-slope fit; details: protein: recombinant; tags: C-terminal His6; chain copies: 4; label: 5'-32P
HpMutS2-G338R [5] = target: T6, HpMutS2-G338R (Helicobacter pylori 26695, UniProt O25338 1-762, G338R); assay: as above; details: protein: recombinant; tags: C-terminal His6; chain copies: 4; label: 5'-32P
HpMutS2 [6] = target: T4, HpMutS2; assay: EMSA; 1 mM ADP; EMSA: 0.16 nM DNA, buffer A (50 mM Tris pH 8.0, 50 mM NaCl, 1 mM DTT per Fig. S3 legend) with 0.1 ug/ul BSA, NaCl 110 mM, no divalent metal stated, 30 min on ice, 8% native PAGE at 4 C; nucleotides 1 mM; Hill-slope fit; details: protein: recombinant; tags: C-terminal His6; chain copies: 4; label: 5'-32P
HpMutS2-G338R [7] = target: T6, HpMutS2-G338R; assay: as above; details: protein: recombinant; tags: C-terminal His6; chain copies: 4; label: 5'-32P
HpMutS2-E413A [8] = target: HpMutS2-E413A (Helicobacter pylori 26695, UniProt O25338 1-762, E413A); assay: EMSA; no nucleotide; no plateau, value not accurate; EMSA: 0.16 nM DNA, buffer A (50 mM Tris pH 8.0, 50 mM NaCl, 1 mM DTT per Fig. S3 legend) with 0.1 ug/ul BSA, NaCl 110 mM, no divalent metal stated, 30 min on ice, 8% native PAGE at 4 C; nucleotides 1 mM; Hill-slope fit; details: protein: recombinant; tags: C-terminal His6; chain copies: 4; label: 5'-32P
HpMutS2-G338R [9] = target: T6, HpMutS2-G338R; assay: EMSA; 1 mM ATP; EMSA: 0.16 nM DNA, buffer A (50 mM Tris pH 8.0, 50 mM NaCl, 1 mM DTT per Fig. S3 legend) with 0.1 ug/ul BSA, NaCl 110 mM, no divalent metal stated, 30 min on ice, 8% native PAGE at 4 C; nucleotides 1 mM; Hill-slope fit; details: protein: recombinant; tags: C-terminal His6; chain copies: 4; label: 5'-32P
HpMutS2 [10] = target: T4, HpMutS2; assay: EMSA; 1 mM ATPgS; EMSA: 0.16 nM DNA, buffer A (50 mM Tris pH 8.0, 50 mM NaCl, 1 mM DTT per Fig. S3 legend) with 0.1 ug/ul BSA, NaCl 110 mM, no divalent metal stated, 30 min on ice, 8% native PAGE at 4 C; nucleotides 1 mM; Hill-slope fit; details: protein: recombinant; tags: C-terminal His6; chain copies: 4; label: 5'-32P

Row | Molecule | dissociation of ssDNA from preformed complex (ssDNA-HpMutS2 complex) | Kd (HpMutS2-G338R [1]) | Kd (HpMutS2-E413A [2]) | Kd (HpMutS2 [3]) | Kd value, fold less than Km value (HpMutS2 [3]; wild-type HpMutS2) | Kd (HpMutS2 [4]) | Kd (HpMutS2-G338R [5]) | Kd (HpMutS2 [6]) | Kd (HpMutS2-G338R [7]) | Kd (HpMutS2-E413A [8]) | Kd (HpMutS2-G338R [9]) | Kd (HpMutS2 [10])
1 | Nc1ncnc2c1ncn2[C@@H]1O[C@H](COP(=O)(O)OP(=O)(O)OP(=O)(O)O)[C@@H](O)[C@H]1O [ATP] | ~ 20% | 409 ± 70.4 µM | 220 ± 54.2 µM | 167 ± 24.3 µM | ~ 2.4 fold | – | – | – | – | – | – | –
2 | Nc1ncnc2c1ncn2[C@@H]1O[C@H](COP(=O)(O)OP(=O)(O)O)[C@@H](O)[C@H]1O [ADP] | – | 318 ± 68.5 µM | 239 ± 82.9 µM | 149 ± 31.8 µM | – | – | – | – | – | – | – | –
3 | B1 | – | – | – | – | – | 0.0215 ± 0.00228 µM | 0.0324 ± 0.00332 µM | 0.0173 ± 0.00289 µM | 0.0239 ± 0.00291 µM | ~0.0738 µM | 0.0307 ± 0.00343 µM | 0.0114 ± 0.00019 µM
